# Test results reported in article PMC12498190, “A Photocaged N‐Phosphonopiperidinone as a Selective Photo‐Cleavable DPP8/9 Inhibitor” (Chembiochem, 2025).
# Molecular target: T1, prolyl endopeptidase (PREP) (Homo sapiens, UniProt P48147)
# T1 construct: endogenous in cells; host or cells: HEK293 (Cytion, Germany, 300192)
# T1 sequence (P48147 1-710): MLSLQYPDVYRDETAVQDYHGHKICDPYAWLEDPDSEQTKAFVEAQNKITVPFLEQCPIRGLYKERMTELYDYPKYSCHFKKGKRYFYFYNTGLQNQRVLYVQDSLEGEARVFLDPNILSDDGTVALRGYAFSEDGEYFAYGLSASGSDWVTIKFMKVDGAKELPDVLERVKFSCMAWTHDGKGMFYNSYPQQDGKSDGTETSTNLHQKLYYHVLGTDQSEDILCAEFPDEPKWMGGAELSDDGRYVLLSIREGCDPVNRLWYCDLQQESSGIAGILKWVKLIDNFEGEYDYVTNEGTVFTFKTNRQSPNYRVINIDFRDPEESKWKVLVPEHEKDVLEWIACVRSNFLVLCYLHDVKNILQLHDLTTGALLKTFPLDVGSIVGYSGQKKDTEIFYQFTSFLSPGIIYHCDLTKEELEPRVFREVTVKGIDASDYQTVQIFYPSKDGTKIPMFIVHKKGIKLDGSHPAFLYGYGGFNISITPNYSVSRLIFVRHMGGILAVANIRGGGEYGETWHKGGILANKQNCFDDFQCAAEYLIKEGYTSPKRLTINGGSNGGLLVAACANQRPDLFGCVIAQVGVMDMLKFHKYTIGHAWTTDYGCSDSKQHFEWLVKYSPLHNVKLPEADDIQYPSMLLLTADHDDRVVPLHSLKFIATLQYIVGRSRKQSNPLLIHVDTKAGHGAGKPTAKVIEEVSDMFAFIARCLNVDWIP
# Assay: In vitro gel-based competitive ABPP in HEK293 cell lysates, 70 kDa band
# Conditions: HEK293 lysate; 10 µM competitor, 30 min; 10 µM 2; green light 5 min
# Procedure: Therefore, HEK293 cell lysates were pre‐incubated with 10 µM 5 or DMSO vehicle control for 30 min, followed by a labeling reaction with 2 µM of the serine hydrolase‐specific ABP fluorophosphonate‐alkyne (≡FP) or 10 µM 2 (Figure 2B). […] Of note, this band has been previously assigned as DPP9 (DPP8 would migrate in the same range, but is only expressed at low levels in the used cell line and therefore cannot be visualized by this approach).^[ [36] ^, [37] ^] […] Again, this labeling was observed regardless of prior irradiation. Subsequently, the competitive labeling experiment was conducted by pre‐incubation with compound 5, with or without subsequent irradiation.
# Figure 2 Competitive ABPP with photo‐cleavable inhibitor 5 in HEK293 cells. […] HEK293 cells were irradiated with a green LED lamp in the presence of 0.5% DMSO for 5 min (‘light’), and cell viability was measured after 24 h. […] For both compounds, cell viability was measured under ‘dark’ (not irradiated) and ‘light’ (irradiated for 5 min with a green LED lamp after the addition of the inhibitor) conditions. […]
# For in vitro ABPP, cell lysates were generated from HEK293 cells grown on a 10 cm tissue dish. […] The cell lysates were cleared via centrifugation (30 min, 20,817 × g, 4 °C), and protein concentration was determined with a modified Bradford assay using Roti‐Nanoquant (Carl Roth, Germany). […]
structure (smiles),measurement,value
CCCCCc1ccc(SCCP(=O)(OCC)N2CCC[C@H](NC(=O)OCC3=C4C(C)=CC(C)=[N+]4[B-](C)(C)n4c(C)cc(C)c43)C2=O)cc1 (stereo partly shown) [Compound 5],Competition of PREP band labeling by ABP 2 (in words),slight reduction
